Reference: patent US7012128B2, “Interaction between cyclin D1 and steroid receptor co-activators and uses thereof in assays” (TopoTarget UK Limited, priority 1998, dated 2006)

Legend:
[1] = system: MCF-7 breast cancer cells; assay: Cell cycle profiles by FACS after transient transfection; assay type: cell-based; settings: transient transfection of MCF-7
Protocol: Cell cycle profiles were analysed using fluuorescence activated cell sorting (FACS)(Allen, 1990; Baldetorp et al, 1998).

wild type ER = assay: ERE-TATA-luciferase transactivation of wild type ER in COS-7 cells; assay type: cell-based; settings: COS-7, wild type ER, presence of ligand
Protocol: FIG. 1. Mapping of the region of cyclin D1 required for ER-mediated transactivation. • (A) The effect of cyclin D1 deletion mutants on ER activation in the presence of ligand. The cyclin D1 derivatives used in this study are shown in the left panel; right side of Figure represents the relative capacity of the mutants to potentiate ERE-dependent transcription. ER-negative COS-7 cells were transfected with expression vectors for wild type ER (200 ng), cyclin D1 or cyclin D1 mutants (2.5 μg), an internal control §-galactosidase plasmid (0.5 μg) and an ERE-TATA-luciferase reporter (3 μg). The effect on ER transactivation of wild type cyclin D1 was set to 100%. These studies were performed in three separate experiments and expressed as mean values with standard deviation less then […]. The alignment of leucine-rich motif of ER with D-type cyclins are shown on the bottom; the leucine-rich motif in cyclin D1 is indicated as a dark box. The identifiers for the sequences shown are as follows: Cyclin D1 (SEQ ID NO:11), Estrogen receptor (SEQ ID NO:12), the Cyclin D2 (SEQ ID NO:13), and the Cyclin D3 (SEQ ID NO:14). • (B) ER activation by D-type cyclins, cyclin D1 L254/255A point mutant (D1-LALA) and SRC-1 in the presence of ligand. COS-7 cells were transfected with D-type cyclin expression vectors, cyclin D1 Leucine-to-Alanine point mutant (D1-LALA) or SRC-1 expression vector together with wild type ER expression vector, an ERE-TATA-luciferase reporter plasmid and the internal control β-galactosidase construct. Data are expressed as relative luciferase activity compared with basal ERE-luciferase activity of wild type ER and are normalized for transfection efficiencies.
FIG. 3. Role of coactivators in cyclin D1—induced transactivation. • (A) Effect of a dominant negative form of SRC-1 (SRC1-DN) on ER transactivation. SRC1-DN encoding amino acids 1245-1441 of SRC-1 (1, 2.5 and 5 μg) was introduced by transient transfection together with wild type ER (200 ng) and was tested for its ability to modulate ERE-dependent transcription. • (B) Effect of SRCI-DN on SRC-1 and TIF 2 mediated ER transactivation. SRC-1 (3 μg) or TIF-2 (3 μg) were transfected with SRC1-DN (3 μg) and tested for ER transactivation. • (C) Effect of SRC1-DN on cyclin D1-induced transactivation of ER 1-535 mutant. Cyclin D1 was cotransfected with SRC1-DN (1, 2.5, 5 μg) and tested for its effect on an ER harboring a deletion of coactivator binding site in helix 12 (ER 1-535). • (D) Effect of SRC1-DN on cyclin D1-induced transactivation of ER L543/544A mutant. Cyclin D1 and SRC1-DN (1, 2.5, 5 gg) were transfected and tested for the activity of ER helix 12 point mutant (ER L543/544A). The transient transfections (A-C) were performed in COS-7 cells, which were maintained in DMEM with 10 nM ligand. The relative activity was calculated by normalizing to the internal control and was divided by luciferase activity of ER (mutant) in the presence of ligand. The transfection for each set of conditions were done at least in four independent experiments and expressed as average ±SD.
To study how cyclin D1 activates ER, cyclin D1 deletion mutants were tested for their effect on ER-transactivation. COS-7 cells were transfected with cyclin D1 mutants, together with ER and a luciferase reporter gene construct driven by a minimal TATA promoter linked to an estrogen response element (ERE). […] This part of the protein is not involved in CDK interaction and is poorly conserved among the different cyclins. […] To test the relevance of this leucine-rich domain of cyclin D1 in ER activation, a cyclin D1 mutant was constructed in which leucines 254 and 255 were mutated to alanines (D1 L254/255A). This mutation in cyclin D1 is similar to the mutation in ER (ER L543/544A) that interferes with coactivator binding to AF-2 (Danielian et al., 1992). […]

## Cyclin D1-LALA: cyclin D1 mutant in which leucines 254 and 255 were mutated to alanines; dominant negative
[1]
  effect on cell cycle: arrest in the cell cycle at the G1/S checkpoint
[1]; FACS
  Phase of cell cycle G0/G1: 81.9%
  Phase of cell cycle G2/M: 7.9%
  Phase of cell cycle S: 10.2%
Wild type ER
  ER transactivation capacity: virtually unable to activate wild type ER
